# Test results published in patent US20220273660A1, “MEK INHIBITOR FOR TREATMENT OF STROKE” (EDVINCE AB, priority 2019, published 2022).
# What was measured:
# [1] = test system: rat subarachnoid haemorrhage model; assay: Rotating pole test after SAH, intrathecal treatment; format: in vivo; conditions: SAH + i.t. treatment
# Protocol: The intrathecal (i.t.) treatment volumes were estimated for a cerebrospinal fluid (CSF) volume of approximately 90 μL (21) and the total dose was administered as three treatments (4 hours, 10 hours and 24 hours) through the PinPort in the ICP catheter placed in the cisterna magna during the surgical procedure. The first and third injections were given under fixation of the rat. Since the treatment 10 hours post-surgery was administered by a single researcher, the rats were briefly anaesthetised with isoflurane 3.5-4% (maintained at 1.75-2%) in atmospheric air/O2 (70%/30%) using a facemask, to prevent sudden movements of the rat. […]
# Gross sensorimotor function was evaluated using a rotating pole test, including a baseline evaluation on the day before induction of SAH. Briefly, movement across a 10-rpm rotating pole (45 mm diameter, 150 cm length) was evaluated with a cage at the end that contain the rat's own bedding material (“smells like home”). Rat performance was scored according to the following definitions: Low, the animal is unable to cross the pole without falling off; High, the animal can traverse the entire pole without falling off. […] Pre-SAH and on day 1 and 2 after surgery, each animal was scored twice for left and right rotation respectively, i.e. 4 counts per animal. […]
# [2] = test system: rat subarachnoid haemorrhage model; assay: Rat SAH model, intraperitoneal treatment, myograph of basilar arteries; format: in vivo; conditions: SAH + i.p. treatment at 6 and 24 hours
# Protocol: For contractility measurements, both incubated BAs (ex vivo) and BAs after surgical procedure (in vivo) were cut into segments and mounted on a pair of metal wires (40 μm) in a myograph bath. The arteries from OC were mounted the same way after 48 hours in media. One wire was attached to a micro-meter screw which allows for fine adjustments of the distance between the wires, controlling the vascular tone.
# The segments were equilibrated in physiological buffer aerated with 95% O2/5% CO2, pH of 7.4, temperature set at 37° C. and the wires were separated for isometric pretension at 2 Nm^−1. The arterial segments were exposed two or three times with 60 mM K^+, by exchanging the buffer with a 60 mM K^+ buffer solution. To maintain equal osmolarity, a proportional amount of Na^+ had been removed from the buffer. An absolute cut-off was set at 2.0 mN K^+max for inclusion of arterial segments from rats that underwent the surgical procedure. Endothelium function was evaluated with the addition of 5-HT (3.10^−7 M) followed by carbachol (10^−5 M). For arteries from the OC the protocol was as followed: first a cumulative concentration-response curve to sarafotoxin 6C (S6c, 10^−14-10^−7 M), followed by a concentration-response curve to endothelin-1 (ET-1, 10^−14-10^−7 M). […]
# ETB receptor = assay: Intracellular flow cytometry of SMC expressing ETB receptor after SAH; format: in vivo, rat; conditions: i.p. at 6 and 24 h post-SAH
# Protocol: The MCAs, BA and the circle of Willis were pooled from one rat. The VSMCs of the cerebral arteries was isolated by a novel technique advanced by the present inventors based on two other protocols (Navone et al, 2013, Nat Protoc; van Beijnum et al, 2008, Nat Protoc). The tissue were disrupted mechanically (scalpel) and then subjected to enzymatic digestion with highly purified Collagenase I and Collagenase II. Isolated cell suspensions were fixed with 4% paraformaldehyde for 30 minutes, washed with PBS and thereafter permeabilized with 0.25% TritonX-100. Cells were resuspended in blocking buffer containing 5% donkey serum and double-stained overnight at 4° C. with primary goat anti-SM22α (1:100, Abcam) or goat isotope control IgG (5 μg/mL, Abcam) and primary antibody rabbit anti-ETB (1:100, Abcam) or rabbit isotope control IgG (10 μg/mL, Abcam) in the same blocking buffer. […] Finally, cell suspensions were diluted to a final volume of 0.5 mL with PBS before analyzed by fluorescent-activated cell sorting (FACS) on the BD FACSVerse machine (BD Biosciences, USA). Fluorescence was induced with a 640 nm red laser. The ratio of SM22α-positive cells expressing ETB was calculated in each sample. Data was analyzed by the BD FACSuite Software.
smiles,measurement,setting,value
CC(=O)Nc1cccc(-n2c(=O)n(C3CC3)c(=O)c3c(Nc4ccc(I)cc4F)n(C)c(=O)c(C)c32)c1 [trametinib],neurological assessment scores (rotating pole test),[1],Improved neurological assessment scores
same,rotating pole Score48 h (% high score count/total score count),"[1]; 48 hours post-SAH, 10 rpm",96%
same,ET-1 contractility (at 10^-9.5 M) vs SAH+i.p. vehicle,[2],significant decrease in contractility
same,contractile response of BAs to 60 mM K+,[2],3.03±0.19 Nm-1
same,increased ETB receptor protein expression in SMC,ETB receptor,not significant abolished
